Measurements taken from PubChem BioAssay (NCI).
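Protocol summary: plate cells (96-well), add compound at 5 concentrations, incubate 48 h, interpolate endpoints linearly. TGI is the concentration that stops growth completely.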

What was measured:
Experiment in all cases: NCI anticancer screen, dose series, 48 h
ACHN renal = test system: ACHN renal
CCRF-CEM leukemia = test system: CCRF-CEM leukemia
HT29 colon = test system: HT29 colon
KM12 colon = test system: KM12 colon
M14 melanoma = test system: M14 melanoma
MALME-3M melanoma = test system: MALME-3M melanoma
OVCAR-4 ovarian = test system: OVCAR-4 ovarian
SK-MEL-5 melanoma = test system: SK-MEL-5 melanoma
SN12C renal = test system: SN12C renal
UACC-257 melanoma = test system: UACC-257 melanoma
HL-60(TB) leukemia = test system: HL-60(TB) leukemia

| Structure (SMILES) | TGI (ACHN renal) [µM] | TGI (CCRF-CEM leukemia) [µM] | TGI (HT29 colon) [µM] | TGI (KM12 colon) [µM] | TGI (M14 melanoma) [µM] | TGI (MALME-3M melanoma) [µM] | TGI (OVCAR-4 ovarian) [µM] | TGI (SK-MEL-5 melanoma) [µM] | TGI (SN12C renal) [µM] | TGI (UACC-257 melanoma) [µM] | TGI (HL-60(TB) leukemia) [µM] |
| --- | --- | --- | --- | --- | --- | --- | --- | --- | --- | --- | --- |
| CC(=O)OCc1ccc2oc(=O)c(C(=O)Oc3cccc(Cl)c3)cc2c1 | > 100 | > 100 | 80.2 | > 100 | > 100 | > 100 | > 100 | > 100 | > 100 | > 100 | – |
| CO[C@H]1ON=C(c2c(C)cc(C)cc2C)[C@@H]1C1(c2ccccc2)ON=C(c2c(C)cc(C)cc2C)O1 (some centres not stated) | > 100 | > 100 | – | > 100 | – | > 100 | – | – | > 100 | > 100 | > 100 |
| NC(=O)c1ccc(NS(=O)(=O)c2ccc(N)cc2)nc1 | > 100 | > 100 | > 100 | > 100 | > 100 | > 100 | > 100 | > 100 | > 100 | > 100 | > 100 |
| CN1C(=O)CN2C(Cl)(Cl)C2(c2ccccc2F)c2cc([N+](=O)[O-])ccc21 (configuration not stated) | > 100 | > 100 | > 100 | > 100 | > 100 | 95.8 | > 100 | > 100 | 80.7 | > 100 | – |
| CN(C)CCCNC(=O)c1cc(NC(=O)c2cc(NS(=O)(=O)c3ccc4c(c3)C(=O)c3ccccc3C4=O)cn2C)cn1C | > 100 | > 100 | > 100 | > 100 | > 100 | 79.4 | > 100 | > 100 | > 100 | > 100 | > 100 |
| CCN1C(=S)n2cccc2C1CC(=O)c1ccc(Cl)cc1 (configuration not stated) | > 100 | – | > 100 | > 100 | > 100 | > 100 | > 100 | – | > 100 | > 100 | > 100 |
| C1CCC(OCc2nnn3c2CCC3)OC1 (configuration not stated) | > 100 | > 100 | > 100 | > 100 | > 100 | > 100 | > 100 | > 100 | > 100 | > 100 | > 100 |
| O=Nc1c(-c2c(O)[nH]c3ccccc23)[nH]c2ccccc12 | > 32.1 | 29.7 | > 57.8 | > 38.7 | 25.9 | 27.8 | 34.1 | 26.4 | 13.3 | > 72.3 | 12.3 |
| COc1ccc(CC2c3cc(OC)c(OC)c(OC)c3CC[N+]2(C)C)cc1Oc1ccc(CC2c3cc4c(c(OC)c3CC[N+]2(C)C)OCO4)cc1 (configuration not stated) | > 100 | > 100 | > 100 | > 100 | > 100 | > 100 | > 100 | > 100 | > 100 | > 100 | > 100 |
| Nc1ccc(Oc2ccc(C3(c4ccc(Oc5ccc(N)cc5)cc4)C4CC5C6CC7CC5C3C(C7)C6C4)cc2)cc1 | > 100 | > 100 | > 100 | > 87.8 | > 100 | > 100 | > 100 | > 100 | 98.5 | > 100 | > 100 |
| C[C@H]1C(=O)O[C@@H]1[C@H]1COC(C)(C)O1 | > 100 | > 100 | – | > 100 | > 100 | – | > 100 | – | > 100 | > 100 | > 100 |
| Cc1nc2c(O)cc3c4c(=O)n(C)c(=O)n(C)c4n(Cc4ccccc4)c3c2nc1C | 31.7 | 50 | 32.2 | 54 | 36.6 | 38.8 | 23.7 | 32.8 | 38.1 | 33.1 | 53.8 |
| Nc1nc(Cl)cc(NCCCNc2cc(Cl)nc(N)n2)n1 | – | > 100 | > 100 | > 100 | > 100 | > 100 | > 100 | > 100 | > 100 | > 100 | > 100 |
| c1ccc(CSc2ccccc2CN2CCN(Cc3ccccc3SCc3ccccc3)CCN(Cc3ccccc3SCc3ccccc3)CC2)cc1 | 10.7 | > 100 | 2.42 | 5.26 | 2.93 | 3.56 | 3.38 | 2.95 | 3.36 | 2.94 | 4.06 |
| CCCCC(C(=O)N/N=C/c1ccc([N+](=O)[O-])o1)C(=O)N/N=C/c1ccc([N+](=O)[O-])o1 | 3.69 | 5.58 | 5.16 | 15.4 | 13.6 | 7.93 | 3.4 | 14.6 | 12.3 | – | 6.71 |
